In patent US20220378802A1, “TREATMENT OF ALCOHOLIC HEPATITIS” (Durect Corporation, priority 2019, published 2022):
“Also recorded” adds a separate entry of the source.

What was measured:
[1] = Pharmacokinetics of 25HC3S in healthy subjects (earlier study); format: in vivo, human; settings: Healthy subjects (N = 5), single dose of 150 mg
Excerpt: The clearance of 25HC3S sodium was decreased by 80% in AH patients as compared to that in healthy subjects from an earlier study. A comparison of the pharmacokinetic parameters of 25HC3S administered to healthy subjects versus subjects with alcoholic hepatitis is summarized in the following Table. A comparison of the plasma concentration of 25HC3S administered to healthy subjects versus subjects with alcoholic hepatitis is depicted in FIG. 5.

[2] = Pharmacokinetics of 25HC3S in alcoholic hepatitis patients (Phase 2a, IV infusion); format: in vivo, human; settings: for PK parameters, moderate versus severe AH groups: comparison at the same dose; for half-life / clearance / Tmax / AUC(0-inf) / Cmax: human, plasma
Procedure: All patients received IV infused 25HC3S (at 30, 90, or 150 mg) on Day 1 and Day 4 (if still hospitalized), and were followed for 28-days. The final enrollment was 19 patients comprised of: 8 patients (4 moderate and 4 severe) dosed at 30 mg, 7 patients (3 moderate and 4 severe) dosed at 90 mg, and 4 patients (4 severe) dosed at 150 mg. • Study Drug A 25HC3S sodium salt solution contained: • 30 mg/mL 25HC3S sodium salt; • 240 mg/mL hydroxypropyl-beta-cyclodextrin; and • 50 mmole phosphate buffer • The 25HC3S sodium salt solution was diluted in 100 mL 5% dextrose or 0.9% sodium chloride infusion solution: • Dose 1: 30 mg of 25HC3S sodium salt in 100 mL 5% dextrose or 0.9% sodium chloride • Dose 2: 90 mg of 25HC3S sodium salt in 100 mL 5% dextrose or 0.9% sodium chloride • Dose 3: 150 mg of 25HC3S sodium salt in 100 mL 5% dextrose or 0.9% sodium chloride • 25HC3S sodium salt was administered by slow intravenous infusion over 2 hrs (50 mL/h) until the entire dose is given at Day 1 and Day 4. If a patient met the hospital discharge criteria prior to the second dose, the patient received only one dose instead of two doses. • Study Procedure The study was conducted in two parts. Part A included patients with MELD scores of 11-20 (moderate AH patients), and Part B included patients with MELD of scores 21-30. The doses of 25HC3S sodium salt administered were 30 mg and 90 mg for Part A and 30 mg, 90 mg and 150 mg for Part B, with 4 patients per dose group per Part (except for only 3 patients in the 90 mg cohort of Part A). All patients were followed to Day 28. • The study started in 4 moderate AH patients (Part A) at 30 mg dose level. After completing the dosing, a Dose Escalation Committee (DEC) reviewed safety, tolerability and pharmacokinetic (PK) data from all 4 patients and determined that it was safe to move forward to dose 4 severe AH patients (Part B) at the same dose level, 30 mg, as well as escalating the dose level to 90 mg in moderate patients (Part A). The same dose escalation procedure was then conducted in Part B until all 4 patients received 150 mg doses. • A flow diagram of the study is depicted in FIG. 2. Each dose cohort enrolled up to 4 subjects. Study subjects received up to 2 doses of 25HC3S sodium salt. The first dose was administered on Day 1 and, if still hospitalized, the second dose was administered on Day 4. A pharmacokinetic (PK) sample was collected at: Time 0 (pre-dose), 1 hour post-dose initiation, 2 hours (end of infusion), 3 hours post-dose initiation, 4 hours post-dose initiation, 8 hours post-dose initiation, 12 hours post-dose initiation, 24-hours post-dose initiation and 50 hours post-dose initiation. • Evaluation: Assessment of Pharmacodynamic (PD) Signals: • Change in Lille score, MELD score, biochemistry (such as bilirubin) • Method and Timing • Lille score was calculated at Day 7 • MELD score was calculated at Screening, Day 1 (pre-dose), Day 7 and Day 28 • Biochemistry and all safety lab parameters were collected at Screening, Day 1 and Day 4 at pre-dose, Day 1 and Day 4 at 12 hrs after dose completion/end of infusion, Day 2, Day 7, Day 28, and if hospitalized on Days 3, 4, 5, and 6. • Assessment of Safety Signals: • Safety was determined based on clinical and laboratory monitoring. • Assessment of PK: • Plasma concentration data of 25HC3S from each patient were used to calculate relevant PK parameters determined using a standard linear/log-trapezoidal rule non-compartmental method with an appropriate PK data analysis program. • The time points for PK sample collection were (after Dose 1 only): 0 (pre-dose), 1 hr post-dose initiation, 2 hrs (end of infusion), 3, 4, 8, 12, 24 hrs post-dose

[3] = AH vs healthy subjects, 150 mg, ↑
[4] = AH vs healthy subjects, 150 mg, ↓
[5] = iv, 30 mg, Moderate AH, cohort 1A, 30 mg IV infusion, N=3
[6] = iv, 30 mg, Severe AH, cohort 1B, 30 mg IV infusion, N=4
[7] = iv, 90 mg, Moderate AH, cohort 2A, 90 mg IV infusion, N=3
[8] = iv, 90 mg, Severe AH, cohort 2B, 90 mg IV infusion, N=4
[9] = iv, 150 mg, Severe AH, cohort 3B, 150 mg IV infusion, N=4
[10] = same dose level, single dose of 150 mg

In the case of C[C@H](CCCC(C)(C)O)[C@H]1CC[C@H]2[C@@H]3CC=C4C[C@@H](OS(=O)(=O)O)CC[C@]4(C)[C@H]3CC[C@]12C [25HC3S, 5-cholesten-3,25-diol, 3-sulfate], the V [1] is reported as 55.0 (4.3) L, the AUC(0-inf) ([1]; human, plasma) is reported as 6190 ng·h/mL and the Cmax ([1]; human, plasma) is reported as 3100 ng/mL. For the same molecule, the clearance ([1]; human, plasma) was 408 mL/min, the half-life ([1]; human, plasma, read-out: T½ (converted)) was 96 min and the “drug exposure (AUC and Cmax) versus dose” value ([2]; AH patients, 30, 90, 150 mg) was “dose proportional”. The “Time to maximum drug concentrations (Tmax)” value ([2]; AH patients, 2 hour IV infusion) was “at the end of 2 hour infusion”, the “Fold Change in PK: AUCinf” value [2, 3] was “↑ ~5×” and the “Fold Change in PK: Cmax” value [2, 3] was “↑ 2×”. The “Fold Change in PK: T½” value [2, 3] was “↑ 2×”, the “Fold Change in PK: CL” value [2, 4] was “↓ 0.25×” and the “Fold Change in PK: V” value [2, 4] was “↓ 0.5×”. For the same molecule, the V ([2]; Moderate AH, cohort 1A, 30 mg IV infusion, N=3) was 24.8 (1.6) L, the V ([2]; Moderate AH, cohort 2A, 90 mg IV infusion, N=3) was 25.8 (10.5) L and the V ([2]; Severe AH, cohort 1B, 30 mg IV infusion, N=4) was 26.1 (4.9) L. The V ([2]; Severe AH, cohort 2B, 90 mg IV infusion, N=4) was 35.3 (10.8) L, the V ([2]; Severe AH, cohort 3B, 150 mg IV infusion, N=4) was 27.8 (5.9) L and the “PK parameters, moderate versus severe AH groups” value [2] was “uninfluenced by the severity of the disease; also recorded: similar”. For the same molecule, the “PK parameters, moderate versus severe AH groups” value ([2]; listed as 25HC3S sodium) was “similar”, the “systemic clearance, fold lower in AH patients compared to healthy subjects” value ([2]; for a given dose) was “about 5 fold” and the “decrease of clearance in AH patients compared to healthy subjects” value ([2]; healthy subjects from an earlier study) was 80%. For the same molecule, the half-life ([2]; intravenous, AH patients, range over groups, read-out: half-life (t1/2)) was 240 to 360 min, the clearance ([2]; intravenous, AH patients, read-out: Mean clearance) was 83.3 to 117 mL/min and the Tmax ([2]; iv, 30 mg, Moderate AH, cohort 1A, 30 mg IV infusion over 2 h, after Dose 1, N=3) was 2.2 h. For the same molecule, the AUC(0-inf) [2, 5] was 6540 ng·h/mL, the Cmax [2, 5] was 1280 ng/mL and the clearance ([2]; iv, 30 mg, Moderate AH, cohort 1A, 30 mg IV infusion, N=3, read-out: CL (converted)) was 98.3 mL/min. It also gave a half-life ([2]; iv, 30 mg, Moderate AH, cohort 1A, 30 mg IV infusion, N=3, read-out: T½ (converted)) of 222 min, an AUC(0-inf) [2, 6] of 7720 ng·h/mL and a Cmax [2, 6] of 1340 ng/mL. The Tmax [2, 6] was 1.8 h, the clearance ([2]; iv, 30 mg, Severe AH, cohort 1B, 30 mg IV infusion, N=4, read-out: CL (converted)) was 68.3 mL/min and the half-life ([2]; iv, 30 mg, Severe AH, cohort 1B, 30 mg IV infusion, N=4, read-out: T½ (converted)) was 108 min. It also gave an AUC(0-inf) [2, 7] of 14300 ng·h/mL, a Cmax [2, 7] of 3630 ng/mL and a Tmax [2, 7] of 2 h. The clearance ([2]; iv, 90 mg, Moderate AH, cohort 2A, 90 mg IV infusion, N=3, read-out: CL (converted)) was 110 mL/min, the half-life ([2]; iv, 90 mg, Moderate AH, cohort 2A, 90 mg IV infusion, N=3, read-out: T½ (converted)) was 162 min and the AUC(0-inf) [2, 8] was 20400 ng·h/mL. The Cmax [2, 8] was 3290 ng/mL, the Tmax [2, 8] was 2.3 h and the clearance ([2]; iv, 90 mg, Severe AH, cohort 2B, 90 mg IV infusion, N=4, read-out: CL (converted)) was 91.7 mL/min. It also gave a half-life ([2]; iv, 90 mg, Severe AH, cohort 2B, 90 mg IV infusion, N=4, read-out: T½ (converted)) of 306 min, an AUC(0-inf) [2, 9] of 27100 ng·h/mL and a Cmax [2, 9] of 6820 ng/mL. The Tmax [2, 9] was 2.1 h, the clearance ([2]; iv, 150 mg, Severe AH, cohort 3B, 150 mg IV infusion, N=4, read-out: CL (converted)) was 96.7 mL/min and the half-life ([2]; iv, 150 mg, Severe AH, cohort 3B, 150 mg IV infusion, N=4, read-out: T½ (converted)) was 204 min. For the same molecule, the “increase in AUC in AH patients compared to healthy subjects” value [2, 10] was “about 5 fold” and the “increase in Cmax in AH patients compared to healthy subjects” value [2, 10] was 2 fold.
